The source made the active and inactive calls.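 How the source made its calls: active means compounds giving half or more protection of infected cells from virus-caused growth loss, again on retest; inactive means the rest.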
Test system: CEM cells HIV-1 protection, formazan growth assay
Assay: NCI AIDS Antiviral Assay
Settings: for IC50: measured here: growth of uninfected CEM cells
How it was run: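 Soluble formazan readout of cell growth; CEM cells ± HIV-1; 5 drug concs. ≥50% protection → retest; ≥50% again = moderately active; reproducible 100% = confirmed active.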

Structure (SMILES) | EC50 [µM] | IC50 [µM] | outcome
CC(C)(O)[C@@H]1CC[C@](C)(C2[C@@H](O)C[C@@]3(C)C4C[C@H](OC5OCC(O)C(O)C5O)[C@H]5C(C)(C)[C@@H](OC6OCC(O)C(O)C6OC6OCC(O)C(O)C6O)CC[C@@]56C[C@@]46CC[C@]23C)O1 (stereo partly drawn) | > 200 | > 200 | –
NC1CCCCCCC1 | > 200 | > 200 | –
C/C(=N\NC(=S)Nc1ccc(C(=O)O)cc1)c1ccccn1 | > 110 | 18.2 | –
O=C1CN(Cc2ccccc2)CC(=O)N2Cc3ccccc3CN12 | – | – | inactive
CCCCN1[C@@H](C)C=C[C@@H](C)S1=O (stereo partly drawn) | – | – | inactive
CC(=O)OCC(=O)[C@@]12OC(C)(C)O[C@@H]1C[C@H]1[C@@H]3CC(C=O)=C4C=C(OCCCl)CC[C@]4(C)[C@@]3(F)[C@@H](O)C[C@@]12C | > 200 | 6.46 | –
CC(C)(C)OC(=O)N1C(=O)C2CCCC21 (stereo not drawn) | > 200 | > 200 | –
COc1ccc(Cl)cc1C(=O)c1cc(Cl)cc(S(=O)(=O)OC)c1OC | > 24.5 | > 24.5 | –
CCCCCCCC1(N=[N+]=[N-])C(=O)c2ccccc2N(C)C1=O (stereo not drawn) | 21.9 | 110 | –
CCCCCCCCCCCC(=O)OCCOCCOCCOCc1ccccc1 | – | – | inactive
O=C1CC23CCC12CCCC3=O (stereo not drawn) | > 550 | > 550 | –
CN=CN(C)c1c2ccccc2nc2ccccc12 | > 200 | > 200 | –
COC1(OC)CC(CO)(CNc2cc(Cl)nc(N)n2)C1 | > 200 | > 200 | –
CC(=O)OC1CCC2(C)C(C)C(C)CCC2(O)C1O (stereo not drawn) | > 200 | 15.1 | –
COc1ccc(C2OC(=O)c3ccc4ccccc4c32)c(C)c1 (stereo not drawn) | > 44.7 | 24.5 | –
c1ccc2c(c1)sc1scc[n+]12 | > 617 | 12.9 | –
Cc1ccc(N(C(=O)CC(=O)N2N=C(c3ccccc3)C(N=Nc3ccc([N+](=O)[O-])cc3)C2=O)C(=O)c2ccc(Cl)cc2)cc1 (stereo not drawn) | > 11.5 | 9.12 | –
Cc1ccc(O)c(-c2cscn2)c1 | > 200 | 107 | –
O=C1Sc2ccccc2C(=O)N2CCCC12 (stereo not drawn) | > 200 | > 200 | –
Cc1ccccc1CN1CC=c2ccccc2=N1 | 51.3 | 129 | –
Nc1nc(Cl)c(N)c(NCC2(CO)CCC2)n1 | > 200 | 115 | –
CC(C)CCCC(C)[C@H]1CCC2C3CCC4C[C@@H](CCC=C(c5cc(Cl)c(OCc6ccc([N+](=O)[O-])cc6)c(C(=O)O)c5)c5cc(Cl)c(OCc6ccc([N+](=O)[O-])cc6)c(C(=O)O)c5)CC[C@]4(C)C3CC[C@@]21C (stereo partly drawn) | 115 | > 200 | –

Structure (SMILES) | EC50 [µM] | IC50 [µM] | outcome
[N-]=[N+]=NC1CC(n2cc(Cc3ccccc3)c(=O)[nH]c2=O)OC1COC(=O)CCC(=O)O (stereo not drawn) | > 562 | > 562 | –
NCCN.[O-][Cl+3]([O-])([O-])[O-].[Pd+2].c1ccc(-c2ccccn2)nc1 | > 200 | 30.2 | –
NC(N)=NS(=O)(=O)c1ccc(Nc2c3ccccc3nc3c(C(=O)NNCCO)cccc23)cc1 | > 200 | 5.25 | –
CC1=C2C3=C(C)C(=O)C(C)(C)CC[C@@]3(C)[C@]2(C)CCC(C)(C)C1=O | > 75.9 | > 75.9 | –
CCCCCC=C1c2ccccc2C=Cc2ccccc21 | > 200 | 72.4 | –
CCN1C[C@]2(COC)CCC(OC(=O)c3ccc(OC)cc3)C34[C@@H]5C[C@@H]6C(OC(C)=O)[C@@H]5[C@](OC(C)=O)(C[C@@H]6OC)[C@@H](C(OC)[C@@H]32)[C@H]14 (stereo partly drawn) | – | – | inactive
C=C(C)C1CCC2(C(=O)O)CCC3(C)C(CCC4C5(C)CCC(O)C(C)(C)C5CCC43C)C12 (stereo not drawn) | > 200 | 66.1 | –
OC1C[C@H](c2ccccc2)C2(C(O)c3ccccc3C2O)[C@@H](c2ccccc2)C1 (stereo partly drawn) | > 200 | 89.1 | –
COP1(=O)CC2C(Cl)(Cl)C2(C)C1 (stereo not drawn) | – | – | inactive
O=S(=O)(Oc1cccc2ccccc12)C(F)(F)F | > 200 | 120 | –
COc1c2c(cc3occ(-c4ccc(CC=C(C)C)cc4)c(=O)c13)OC(C)(C)C=C2 | > 200 | 14.1 | –
O=C1NN(C2=NNC3(C(=O)N2)c2ccccc2-c2ccccc23)C(c2ccccc2)=N/C1=C/c1ccc(Cl)cc1 | > 100 | 70.8 | –
O=c1oc2ccccc2c(O)c1C(c1ccc(O)cc1)c1c(O)c2ccccc2oc1=O | – | – | inactive
COC(=O)C1=C(C)NC2=C(C(=O)c3ccccc32)C1c1cn[nH]c1-c1ccccc1 (stereo not drawn) | > 20 | > 20 | –
O=S(=O)(c1ccccc1)c1nccs1 | 110 | 575 | –
Cc1cc(C)nc(NS(=O)(=O)c2ccc(Nc3c4ccccc4nc4c(C(=O)N5CCN(CCO)CC5)cccc34)cc2)n1 | > 36.3 | > 36.3 | –
COc1cc(C2OCC3C(c4ccc(O)c(OC)c4)OCC23)ccc1O (stereo not drawn) | – | – | inactive
c1cc(-c2csc(-c3ccsc3)c2)cs1 | > 200 | > 200 | –
O=C1/C(=C/c2ccc(Cl)cc2)NC(=S)N1CN1CCOCC1 | > 200 | 32.4 | –
CN(C)C(=Nc1ccc(NC(=O)c2ccc(C(=O)Nc3ccc(N=C(Nc4ccccc4)N(C)C)cc3)cc2)cc1)Nc1ccccc1 | – | – | inactive
CC1(C)CC(=O)C2(CC(CSc3ccccc3)C(CS(=O)(=O)c3ccccc3)C2)C(=O)C1 (stereo not drawn) | > 200 | > 200 | –
Nc1cccc(Nc2nc3ccccc3nc2NS(=O)(=O)c2ccccc2)c1 | > 200 | 51.3 | –

Structure (SMILES) | EC50 [µM] | IC50 [µM] | outcome
O=c1oc2ccccc2c(O)c1C(c1ccc2c(c1)OCO2)c1c(O)c2ccccc2oc1=O | > 200 | 75.9 | –
O=[N+]([O-])c1ccc(OCn2ncc3ccc([N+](=O)[O-])cc32)cc1 | > 200 | > 200 | –
CN1CCN(c2ccc3c(c2)NCC(=O)N3)CC1 | > 200 | 117 | –
O=C(NN1C(=O)C(Cl)C1c1ccc([N+](=O)[O-])cc1)c1ccccc1O (stereo not drawn) | > 10.5 | > 10.5 | –
CON1C(=O)C2(CCCCC2)C(=O)C12C=CC(C)CC2 (stereo not drawn) | > 162 | > 162 | –
COc1ccc(C)cc1S(=O)(=O)c1c(Cl)cccc1[N+](=O)[O-] | > 200 | > 200 | –
Nc1ccc(S(=O)(=O)NNc2nc(N3CCCCC3)nc(N3CCCCC3)n2)cc1 | > 200 | > 200 | –
N#CC(C(=O)/C(=N/Nc1nc(=S)[nH]n1N)C(C#N)c1ccccc1)c1ccccc1 (stereo not drawn) | > 17.4 | > 17.4 | –
O=c1cc(O)nc2cn[nH]n12 | > 234 | > 234 | –
CC12CCC[C@@](C)(C(=O)O)[C@H]1CCC1=CC3(CCC12)SCCS3 (stereo partly drawn) | > 355 | 57.5 | –
CN(C)c1ccc(/[N+]([O-])=C/c2cc(=O)c(OS(C)(=O)=O)co2)cc1 | > 200 | 3.09 | –
CC1=CC2O[C@@H]3C[C@@H](O)[C@](C)(C2(C)CC1=O)C31CO1 (stereo partly drawn) | > 200 | 3.72 | –
CON(C)C(=O)CNC(=O)OCC1c2ccccc2-c2ccccc21 | > 200 | > 100 | –
C[Si](C)(C)/C(I)=C/CO | – | – | inactive
O=c1[nH]n2c(=O)cc[nH]c2c1-c1nnns1 | > 30.9 | > 30.9 | –
Oc1c(C2=NNC(c3cccs3)C2)ccc2ccccc12 (stereo not drawn) | > 200 | 33.1 | –
C=C(C(N)=O)c1ccc([N+](=O)[O-])o1 | > 200 | 3.47 | –
CC(=O)C(N=Nc1nc2ccc(Cl)cc2[nH]1)C(C)=O | > 200 | 28.8 | –
Cc1ccnc2n[nH]nc12 | > 1860 | 372 | –
CC1(C)O[C@H]2OC(CO)C(OS(C)(=O)=O)[C@H]2O1 (stereo partly drawn) | > 200 | > 200 | –
Cc1ncc2c(n1)NC(=O)NC2 | > 83.2 | > 83.2 | –
Cn1c(=O)c2c(n(C)c1=O)n1c(=O)c3ccccc3nc1n2C | > 200 | > 200 | –

Structure (SMILES) | EC50 [µM] | IC50 [µM] | outcome
O=C1c2ccccc2C(=O)N1CCCC[P+](c1ccccc1)(c1ccccc1)c1ccccc1 | > 200 | 15.5 | –
CS/C(=C\c1ccc(C(=O)c2ccc(C)cc2)n1C)S(C)=O (stereo not drawn) | > 200 | 12.3 | –
CC1(C)COC(c2c(-c3ccccc3)noc2CS(=O)c2ccccc2)=N1 (stereo not drawn) | > 100 | 42.7 | –
CCNc1nc(NC(C)C)nc(-c2ccncc2)n1 | > 200 | 138 | –
CC1(C)OCC(C2OC(OC(=O)c3ccc([N+](=O)[O-])cc3)C3OC(C)(C)OC23)O1 (stereo not drawn) | – | – | inactive
CNC(=O)CCNC(=O)CCC(=O)N(C)C | > 200 | > 200 | –
O=C(O)c1nn(-c2ccccc2)c2c1CSc1ccccc1-2 | > 200 | 158 | –
O=S1(=O)CCc2ccccc2C(Br)C1 (stereo not drawn) | > 200 | > 200 | –
CC(=O)N1C(=O)c2cc3ccccc3cc21 | > 200 | > 100 | –
O=[N+]([O-])c1ccc2c(c1)-c1ccccc1S2(=O)=O | – | – | inactive
C1CN2CCO[SiH](O1)OCC2 | – | – | inactive
CC(=O)Nc1ccc(N2C(=O)/C(=C\c3cccc(Oc4ccccc4)c3)SC2c2ccccc2)cc1 (stereo not drawn) | > 200 | 36.3 | –
CC(=O)[C@@H](C)C(=O)N1C(=O)OC[C@@]12[C@@H]1CC[C@@H](C1)C2(C)C | > 200 | > 200 | –
O=C1NC2(O)c3ccccc3C(=O)C2(O)N1c1ccccc1 (stereo not drawn) | > 851 | 692 | –
CCCCCCCCCCCCCCCC[N+](C)(C)CCN(Cc1ccc(OC)cc1)c1ncccn1 | > 200 | 0.977 | –
c1ccc2c(c1)cnn1cnnc21 | > 1480 | 661 | –
N#Cc1sc2c(c1OC(=O)c1ccco1)c(=O)n(-c1ccccc1)c(=S)n2-c1ccccc1 | > 200 | 12.3 | –
CCCc1ccc(NCc2cc(OC)c(OC)c(OC)c2)cc1 | > 74.1 | 31.6 | –
O=[N+]([O-])c1cnn(C2=CNc3ccccc3N=C2)c1 | > 7.41 | > 7.41 | –
NCCCNCc1c2ccccc2c(CNCCCN)c2ccccc12 | > 120 | 1.95 | –
Cc1cc(Br)cc(C)c1NC(=O)C(=O)CC(=O)c1sc(-n2nc(-c3ccccc3)cc2-c2ccccc2)nc1C | – | – | inactive
CC1=CC(=O)/C(=C/N2C(=O)CNC2=S)C(=O)O1 | > 200 | > 200 | –

— PubChem BioAssay AID179 (DTP/NCI, 2004)
